# Measurements published in US20250129113A1, “NEW GLYCOSIDE COMPOUND AND PREPARATION PROCESS THEREOF” (SunIn Biotech Co., Ltd., priority 2023, published 2025).
# How the values were obtained:
# [1] = system: HaCaT cells; experiment: Cell proliferation assay (CCK-8), HaCaT cells; format: cell-based, human; conditions: 25 mM glucose, 48 hours, vs control group
# Method: (§1) Human Foreskin Fibroblast, Hs68 cells and human keratinocytes, HaCaT cells were cultured in Dulbecco's Modified Eagle Medium (DMEM) added with glucose and 10% fetal calf serum, and then the cells were put in a humidified incubator with an air of 5% carbon dioxide and 95% oxygen. The medium was changed every two days. The subculture was performed, and then treated with 0.25% trypsin (TRYPSIN-EDTA) mixture. Finally, the cells were collected and diluted at a ratio of 1:5 for re-culture. The cells used in the efficacy test had passage numbers ranging from 12 to 40.
# HaCaT cells at the number of 5×10^3 were cultured Culture in DMEM culture medium for 48 hours. The cell growth and survival status were analyzed with the CCK-8 reagent kit (DOJINDO MOLECULAR TECHNOLOGIES, KUMAMOTO, JAPAN). 10 μL CCK-8 solution was added to each cell culture and the cells were incubated at 37° C. for one hour, and then the cells were measured by the spectrophotometer MICROPLATE READER (THERMO LABSYSTEMS MULTISKAN RC) at 450 nm absorption, and the experimental results were analyzed by a comparison with the control group.
# [2] = system: full-skin wound in BKS.Cg-Dock7m+/+ Leprdb/Jnarl male mice; experiment: Diabetic mice wound healing study; format: in vivo; conditions: Nusynside 0.23 mg, Day 17 after continuous administration, compared to Blank group
# Method: BKS.Cg-Dock7m+/+ Leprdb/Jnarl male mice, an established diabetes model, were obtained from the National Applied Research Laboratories, Taiwan. The experiment was conducted when the mice were 6 to 7 weeks old. A full-skin wound of the same size with a diameter of about 6 mm was made on the left and right sides of each mouse's back.
# Total 14 mice were randomly divided into 4 groups based on body weight: (i) Nusynside test group (administrated with Nusynside 0.23 mg) (n=4); (ii) Positive Control group (administrated with cream containing Centella Asiatica and Plectranthus amboinicus extract) (n=4); (iii) Vehicle Control group (administrated with ointment base) (n=3); (vi) Blank group (n=3). The animals underwent bilateral incisions and were housed individually in separate cages after the incisions, in the IVC housing system of the general SPF breeding area. Daily external cage observations were conducted by the animal caretakers. On the day of the incision and during follow-up photography, the body weight of the animals, wound appearance, and wound area were measured and recorded, except that the wound had healed resulting in it disable to be measured, the measurements were taken twice a week.
# [3] = system: Hs68 cells; experiment: Cell proliferation assay (CCK-8), Hs68 cells; format: cell-based, human; conditions: 25 mM glucose, 24 hours, vs control group
# Method: as §1
# The Hs68 cells were cultured in DMEM culture medium for 24 hours. The cell growth and survival status were analyzed with the CCK-8 reagent kit (DOJINDO MOLECULAR TECHNOLOGIES, KUMAMOTO, JAPAN). 10 μL CCK-8 solution to each cell culture was added and the cell culture was incubated at 37° C. for one hour, and then the cells were measured by the spectrophotometer MICROPLATE READER (THERMO LABSYSTEMS MULTISKAN RC) at 450 nm absorption, and the experimental results were analyzed by a comparison with the control group.
# [4] = system: IL-6 gene expression in THP1 cells differentiated into M1-type macrophages; experiment: Real-time PCR inflammatory gene expression assay, IL-6; format: cell-based, human; conditions: 16 μM; THP1 differentiation into M1-type macrophages (LPS, IFN-γ); 25 mM glucose
# Method: (§2) Human acute monocytic leukemia, THP1 cells were cultured in Roswell Park Memorial Institute (RPMI) 1640 medium added with 10% fetal calf serum, and then the cells were put in a humidified incubator at 37° C., and with an air of 5% carbon dioxide and 95% oxygen.
# (§3) THP1 cells were treated with 100 ng/ml of phorbol 12-myristate 13-acetate (PMA) for 24 hours to induce activation. The following day, the medium was replaced with RPMI 1640 (25 mM Glucose, 10% FBS) and incubated for another 24 hours. The cells were then differentiated into M1 phase macrophages by switching to RPMI 1640 medium containing LPS (10 pg/ml) and IFN-γ (20 ng/ml), and into M2 phase macrophages using RPMI 1640 medium containing IL-4 (20 ng/ml) and IL-13 (20 ng/ml). During the 48-hour differentiation process, the test drug Nusynside (16 μM) was added. After 24 hours of differentiation, mRNA from M1 and M2 phase macrophages was extracted using the PROTECH Kit, and reverse transcription of mRNA into cDNA was performed with the Protech MMLV Reverse Transcription Kit. Gene expression was subsequently observed. According to the POWERTRACK SYBR dye protocol, the cDNA was mixed, and gene expression was analyzed using the StepOnePlus Real-Time PCR Systems to examine inflammatory gene expression when THP1 cells were differentiated into M1 and M2 phase macrophages in the presence of Nusynside (16 μM).
# [5] = system: TNF-α gene expression in THP1 cells differentiated into M1-type macrophages; experiment: Real-time PCR inflammatory gene expression assay, TNF-α; format: cell-based, human; conditions: 16 μM; THP1 differentiation into M1-type macrophages (LPS, IFN-γ); 25 mM glucose
# Method: as §2, §3
structure (smiles),measurement,setting,value
CC1OC(OC2C(O)C(OCCc3ccc(O)c(O)c3)OC(CO)C2OC(=O)CCc2ccc(O)c(O)c2)C(O)C(O)C1O (centres unmarked) [Nusynside],promotion of cell proliferation of HaCaT cells,[1]; 3.2 μM,12%
same,promotion of cell proliferation of HaCaT cells,[1]; 16 μM,17%
same,promotion of cell proliferation of HaCaT cells,[1]; 32 μM,14%
same,wound healing rate,[2],significantly increased the wound healing rate
same,promotion of cell proliferation of Hs68 cells,[3]; 16 μM,9%
same,promotion of cell proliferation of Hs68 cells,[3]; 32 μM,12%
same,expression of IL-6 gene,[4],significantly downregulated
same,expression of TNF-α gene,[5],significantly downregulated
